Measured values published in patent publication US8192962B2, “Processes for detecting toxic substances” (Daikin Industries, Ltd., priority 2001, dated 2012).

Tested on: Unknown protein yeast genes
Experiment: DNA chip mRNA expression in yeast, unknown protein yeast genes (Table 1)
Assay type: cell-based, Saccharomyces cerevisiae S288C
Outline: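 Cells were grown at 25° C. in YPD, treated at logarithmic phase for 2 h with a chemical at a concentration inhibiting growth but not causing death, and compared with untreated cultures. Labeled cDNA was hybridized to a DNA chip carrying all yeast genes, and the expression ratio was taken from scanner fluorescence.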

Na2As [(1)]
The level of expressed mRNA in the presence of chemical substance/The level of expressed mRNA in the absence of chemical substance (yeast gene YKL195W, incubated two hours with chemical substance): 0.8 | The level of expressed mRNA in the presence of chemical substance/The level of expressed mRNA in the absence of chemical substance (yeast gene YKR091W, incubated two hours with chemical substance): 1.5 | The level of expressed mRNA in the presence of chemical substance/The level of expressed mRNA in the absence of chemical substance (yeast gene YLR054C, incubated two hours with chemical substance): 2.0 | The level of expressed mRNA in the presence of chemical substance/The level of expressed mRNA in the absence of chemical substance (yeast gene YLR149C, incubated two hours with chemical substance): 1.4 | The level of expressed mRNA in the presence of chemical substance/The level of expressed mRNA in the absence of chemical substance (yeast gene YLR152C, incubated two hours with chemical substance): 0.7 | The level of expressed mRNA in the presence of chemical substance/The level of expressed mRNA in the absence of chemical substance (yeast gene YLR194C, incubated two hours with chemical substance): 2.1 | The level of expressed mRNA in the presence of chemical substance/The level of expressed mRNA in the absence of chemical substance (yeast gene YLR324W, incubated two hours with chemical substance): 0.7 | The level of expressed mRNA in the presence of chemical substance/The level of expressed mRNA in the absence of chemical substance (yeast gene YLR350W, incubated two hours with chemical substance): 1.2 | The level of expressed mRNA in the presence of chemical substance/The level of expressed mRNA in the absence of chemical substance (yeast gene YLR387C, incubated two hours with chemical substance): 0.9 | The level of expressed mRNA in the presence of chemical substance/The level of expressed mRNA in the absence of chemical substance (yeast gene YLR460C): 2.1 | The level of expressed mRNA in the presence of chemical substance/The level of expressed mRNA in the absence of chemical substance (yeast gene YML117W, incubated two hours with chemical substance): 0.9 | The level of expressed mRNA in the presence of chemical substance/The level of expressed mRNA in the absence of chemical substance (yeast gene YMR009W, incubated two hours with chemical substance): 2.3 | The level of expressed mRNA in the presence of chemical substance/The level of expressed mRNA in the absence of chemical substance (yeast gene YMR067C, incubated two hours with chemical substance): 0.9 | The level of expressed mRNA in the presence of chemical substance/The level of expressed mRNA in the absence of chemical substance (yeast gene YMR090W): 6.9 | The level of expressed mRNA in the presence of chemical substance/The level of expressed mRNA in the absence of chemical substance (yeast gene YMR095C, incubated two hours with chemical substance): 1.1 | The level of expressed mRNA in the presence of chemical substance/The level of expressed mRNA in the absence of chemical substance (yeast gene YMR097C, incubated two hours with chemical substance): 1.5 | The level of expressed mRNA in the presence of chemical substance/The level of expressed mRNA in the absence of chemical substance (yeast gene YMR102C, incubated two hours with chemical substance): 1.0 | The level of expressed mRNA in the presence of chemical substance/The level of expressed mRNA in the absence of chemical substance (yeast gene YMR107W, incubated two hours with chemical substance): 5.0 | The level of expressed mRNA in the presence of chemical substance/The level of expressed mRNA in the absence of chemical substance (yeast gene YMR180C, incubated two hours with chemical substance): 1.2 | The level of expressed mRNA in the presence of chemical substance/The level of expressed mRNA in the absence of chemical substance (yeast gene YMR184W, incubated two hours with chemical substance): 1.3 | The level of expressed mRNA in the presence of chemical substance/The level of expressed mRNA in the absence of chemical substance (yeast gene YMR191W, incubated two hours with chemical substance): 1.3 | The level of expressed mRNA in the presence of chemical substance/The level of expressed mRNA in the absence of chemical substance (yeast gene YMR295C, incubated two hours with chemical substance): 1.7 | The level of expressed mRNA in the presence of chemical substance/The level of expressed mRNA in the absence of chemical substance (yeast gene YMR316W, incubated two hours with chemical substance): 3.2 | The level of expressed mRNA in the presence of chemical substance/The level of expressed mRNA in the absence of chemical substance (yeast gene YNL044W, incubated two hours with chemical substance): 1.3 | The level of expressed mRNA in the presence of chemical substance/The level of expressed mRNA in the absence of chemical substance (yeast gene YNL074C, incubated two hours with chemical substance): 0.9 | The level of expressed mRNA in the presence of chemical substance/The level of expressed mRNA in the absence of chemical substance (yeast gene YNL092W, incubated two hours with chemical substance): 1.3 | The level of expressed mRNA in the presence of chemical substance/The level of expressed mRNA in the absence of chemical substance (yeast gene YNL115C, incubated two hours with chemical substance): 0.7 | The level of expressed mRNA in the presence of chemical substance/The level of expressed mRNA in the absence of chemical substance (yeast gene YNL156C, incubated two hours with chemical substance): 1.1 | The level of expressed mRNA in the presence of chemical substance/The level of expressed mRNA in the absence of chemical substance (yeast gene YNL234W, incubated two hours with chemical substance): 1.1 | The level of expressed mRNA in the presence of chemical substance/The level of expressed mRNA in the absence of chemical substance (yeast gene YNL281W, incubated two hours with chemical substance): 1.0 | The level of expressed mRNA in the presence of chemical substance/The level of expressed mRNA in the absence of chemical substance (yeast gene YNL305C, incubated two hours with chemical substance): 0.9 | The level of expressed mRNA in the presence of chemical substance/The level of expressed mRNA in the absence of chemical substance (yeast gene YNR068C, incubated two hours with chemical substance): 1.2 | The level of expressed mRNA in the presence of chemical substance/The level of expressed mRNA in the absence of chemical substance (yeast gene YOL032W, incubated two hours with chemical substance): 1.3 | The level of expressed mRNA in the presence of chemical substance/The level of expressed mRNA in the absence of chemical substance (yeast gene YOL036W, incubated two hours with chemical substance): 0.8 | The level of expressed mRNA in the presence of chemical substance/The level of expressed mRNA in the absence of chemical substance (yeast gene YOL047C, incubated two hours with chemical substance): 1.4 | The level of expressed mRNA in the presence of chemical substance/The level of expressed mRNA in the absence of chemical substance (yeast gene YOL071W, incubated two hours with chemical substance): 1.3 | The level of expressed mRNA in the presence of chemical substance/The level of expressed mRNA in the absence of chemical substance (yeast gene YOL082W, incubated two hours with chemical substance): 1.0 | The level of expressed mRNA in the presence of chemical substance/The level of expressed mRNA in the absence of chemical substance (yeast gene YOL083W, incubated two hours with chemical substance): 1.1 | The level of expressed mRNA in the presence of chemical substance/The level of expressed mRNA in the absence of chemical substance (yeast gene YOL117W, incubated two hours with chemical substance): 1.0 | The level of expressed mRNA in the presence of chemical substance/The level of expressed mRNA in the absence of chemical substance (yeast gene YOL131W, incubated two hours with chemical substance): 1.0 | The level of expressed mRNA in the presence of chemical substance/The level of expressed mRNA in the absence of chemical substance (yeast gene YOL150C): 4.1 | The level of expressed mRNA in the presence of chemical substance/The level of expressed mRNA in the absence of chemical substance (yeast gene YOL162W, incubated two hours with chemical substance): 2.0 | The level of expressed mRNA in the presence of chemical substance/The level of expressed mRNA in the absence of chemical substance (yeast gene YOR019W, incubated two hours with chemical substance): 2.9 | The level of expressed mRNA in the presence of chemical substance/The level of expressed mRNA in the absence of chemical substance (yeast gene YOR197W, incubated two hours with chemical substance): 0.8 | The level of expressed mRNA in the presence of chemical substance/The level of expressed mRNA in the absence of chemical substance (yeast gene YPL087W, incubated two hours with chemical substance): 1.0 | The level of expressed mRNA in the presence of chemical substance/The level of expressed mRNA in the absence of chemical substance (yeast gene YPL196W, incubated two hours with chemical substance): 1.3 | The level of expressed mRNA in the presence of chemical substance/The level of expressed mRNA in the absence of chemical substance (yeast gene YPL206C, incubated two hours with chemical substance): 1.0 | The level of expressed mRNA in the presence of chemical substance/The level of expressed mRNA in the absence of chemical substance (yeast gene YPL222W, incubated two hours with chemical substance): 0.9 | The level of expressed mRNA in the presence of chemical substance/The level of expressed mRNA in the absence of chemical substance (yeast gene YPR023C, incubated two hours with chemical substance): 1.2 | The level of expressed mRNA in the presence of chemical substance/The level of expressed mRNA in the absence of chemical substance (yeast gene YPR151C, incubated two hours with chemical substance): 2.3
